{"source": "PubChem BioAssay AID2060497", "about": "(Molecular Pharmacology Branch, DTP, NCI, 2025)", "test_system": "317291-083-R-J1-PDC complex spheroids, viability", "assay": "Anticancer human tumor 317291-083-R-J1-PDC patient-derived soft tissue sarcoma cell line growth inhibition [GQUAD]", "conditions": "for viability, T/C: stronger effect = lower value", "text": "DNA G-quadruplex Stabilizer Agents in Combinations in Complex Spheroids\nA high-throughput screen of multi-cell type tumor spheroids was designed to identify active combinations of DNA G-quadruplex stabilizer agents and targeted small molecules. Complex spheroids include a stromal component modeled by human endothelial cells (HUVEC) and fibroblasts modeled by human mesenchymal stem cells (MSCs). The concentration ranges selected for each drug and investigational agent were based upon clinically achievable concentrations if the clinical Cmax of the agent was known.\nCompounds. The drugs and investigational agents: pidnarulex (CX-5461; NSC782164), APTO-253 (NSC789042), BRACO-19 (NSC847499), peposertib (NSC802822), ceralasertib (NSC780249), elimusertib (NSC800525), camonsertib (NSC841442), AZD-1390 (NSC803789), olaparib (NSC753686), talazoparib (NSC767125), ART-558 (NSC835418), sotorasib (NSC818433), MRTX-1133 (NSC836407), SN-38 (NSC673596), topotecan (NSC609699), etoposide (NSC141540), doxorubicin (NSC123127), gemcitabine (NSC613327), 5-fluorouracil (NSC19893), paclitaxel (NSC125973), vemurafenib (NSC761431), panobinostat (NSC761190), R-306465 (JNJ-16241199; NSC773264), adavosertib (NSC754352), TP-3654 (NSC805149), carboplatin (NSC241240), KSQ-4279 (NSC840948), and staurosporine (NSC755774) were obtained from the National Cancer Institute (NCI) Developmental Therapeutics Program Chemical Repository (34). The FDA-approved anticancer drug set is available from the NCI Developmental Therapeutics Program. […] The stock solutions were prepared in dimethyl sulfoxide (DMSO, Sigma-Aldrich, St. Louis, MO, cat. D2650) at 800-fold the tested concentration and stored at -70 degrees C prior to their use. All drugs and investigational agents were tested over a range starting from a high concentration at or near the clinical Cmax and decreasing in half-log increments. If the clinical Cmax for an agent had not been determined, the highest concentration tested was 10 microM.\n2.3 Cell Culture. All cells were maintained in an incubator at 37 degrees C and 5% CO2 with 95% humidity. The PDC lines were cultured according to standard operating procedures established by the NCI PDMR. All PDCs were thawed and cultured in Matrigel-coated flasks prepared with a working solution of 1X Ham's F-12 nutrient mix, without supplementation (Invitrogen, cat. 11765054), 100 U/mL penicillin-streptomycin (Invitrogen, cat. 15140122), and 2.5% Matrigel (Corning Inc., cat. 354248) for the first three passages. The 857933-349-R-J2-PDC line was cultured in 6C/Colon 1B media, which includes advanced DMEM/F-12 (Thermo Fisher Scientific, cat. 12634028), 10 mM HEPES (Thermo Fisher Scientific, cat. 15630080), 1X GlutaMAX supplement (Thermo Fisher Scientific, cat. 35050061), 0.1 mg/mL primocin (InvivoGen, cat. ant-pm-2), 10% defined fetal bovine serum, heat inactivated (HyClone Laboratories Inc., cat. SH30070.03HI), 50% L-WRN conditioned media (ATCC, cat. CRL-3276), 1.25 mM N-Acetyl-L-cysteine (Sigma-Aldrich, cat. A9165), 10 mM nicotinamide (Sigma-Aldrich, cat. N0636), 1X B-27 supplement (Thermo Fisher Scientific, cat. 17504044), 1X N-2 supplement (Thermo Fisher Scientific, cat. 17502048), 10 microM Y-27632 dihydrochloride (Tocris Bioscience, cat. 1254), and 50 ng/mL human EGF recombinant protein (Thermo Fisher Scientific, cat. PHG0311). The 485176-168-R4-J1-PDC line was cultured in Panc media, which includes all 6C/Colon 1B media components plus 100 ng/mL human FGF-10 (Thermo Fisher Scientific, cat. 100-26), 500 nM SB-431542 (Selleckchem, cat. S1067), and gastrin (Tocris, cat. 3006).\n[…]", "note": "pIC50: −log10 of the molar value. Values joined by “and” are separate entries in the source; they are usually repeats but may differ in a detail not shown here. Equal entries are not always repeated.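 Note: spheroids exposed to compounds for one week before readout.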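 Throughout, for viability, T/C: percent viability relative to DMSO vehicle wells taken as 100%.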"}
{"smiles": "COc1cc(C2c3cc4c(cc3C(OC3OC5COC(C)OC5C(O)C3O)C3COC(=O)C23)OCO4)cc(OC)c1O", "note": "(stereo not given)", "values": [{"measurement": "viability, T/C", "setting": "compound 0.0316 µM", "result": "94.7% and 99.8% (2×)"}, {"measurement": "viability, T/C", "setting": "compound 0.1 µM", "result": "96.7% and 94.9% and 84.3%"}, {"measurement": "viability, T/C", "setting": "compound 0.316 µM", "result": "48.8% and 64% and 53.8%"}, {"measurement": "viability, T/C", "setting": "compound 1 µM", "result": "22.1% and 20.2% and 30.3%"}, {"measurement": "viability, T/C", "setting": "compound 3.16 µM", "result": "15.9% and 15.7% and 15.8%"}, {"measurement": "viability, T/C", "setting": "compound 10 µM", "result": "12% and 11.2% and 17%"}, {"measurement": "pIC50", "setting": "curve of compound", "result": "6.51 and 6.34 and 6.42"}]}
{"smiles": "C=CC(=O)N1CCN(c2nc(=O)n(-c3c(C)ccnc3C(C)C)c3nc(-c4c(O)cccc4F)c(F)cc23)C(C)C1", "note": "(stereo not given)", "values": [{"measurement": "viability, T/C", "setting": "compound 0.0316 µM", "result": "108% (2×) and 110%"}, {"measurement": "viability, T/C", "setting": "compound 0.1 µM", "result": "105% and 102% and 99.9%"}, {"measurement": "viability, T/C", "setting": "compound 0.316 µM", "result": "118% and 108% and 110%"}, {"measurement": "viability, T/C", "setting": "compound 1 µM", "result": "101% (2×) and 102%"}, {"measurement": "viability, T/C", "setting": "compound 3.16 µM", "result": "99.1% and 101% and 97.7%"}, {"measurement": "viability, T/C", "setting": "compound 10 µM", "result": "69.1% and 68% and 75.9%"}, {"measurement": "pIC50", "setting": "curve of compound", "result": "< 5.00"}]}
{"smiles": "Cn1ncnc1[C@H]1c2n[nH]c(=O)c3cc(F)cc(c23)N[C@@H]1c1ccc(F)cc1", "values": [{"measurement": "viability, T/C", "setting": "compound 0.000999 µM", "result": "123% and 104% (2×)"}, {"measurement": "viability, T/C", "setting": "compound 0.00316 µM", "result": "109% and 92.2% and 102%"}, {"measurement": "viability, T/C", "setting": "compound 0.00999 µM", "result": "99.7% and 95.3% and 94.3%"}, {"measurement": "viability, T/C", "setting": "compound 0.0316 µM", "result": "86.2% and 89.7% and 90.5%"}, {"measurement": "viability, T/C", "setting": "compound 0.0999 µM", "result": "98.2% and 67.3% and 84.9%"}, {"measurement": "viability, T/C", "setting": "compound 0.316 µM", "result": "64.2% and 62.6% and 69%"}, {"measurement": "pIC50", "setting": "curve of compound", "result": "< 6.50"}]}
{"smiles": "COc1ncnc(C2CC2)c1-c1ncc2cnn(Cc3ccc(-c4nc(C(F)(F)F)cn4C(C)C)cc3)c2n1", "note": "+ CN(C)c1ccc(Nc2c3ccc(NC(=O)CCN4CCCC4)cc3nc3cc(NC(=O)CCN4CCCC4)ccc23)cc1", "values": [{"measurement": "pIC50", "setting": "curve of first compound, second compound 0.0316 µM", "result": "< 5.00"}, {"measurement": "pIC50", "setting": "curve of first compound, second compound 0.1 µM", "result": "< 5.00"}, {"measurement": "pIC50", "setting": "curve of first compound, second compound 0.316 µM", "result": "> 7.50"}, {"measurement": "pIC50", "setting": "curve of first compound, second compound 1 µM", "result": "> 7.50"}, {"measurement": "pIC50", "setting": "curve of first compound, second compound 3.16 µM", "result": "> 7.50"}, {"measurement": "pIC50", "setting": "curve of first compound, second compound 10 µM", "result": "> 7.50"}, {"measurement": "viability, T/C", "setting": "second compound 0.0316 µM, first compound 0.0316 µM", "result": 88.5, "unit": "%"}, {"measurement": "viability, T/C", "setting": "second compound 0.0316 µM, first compound 0.1 µM", "result": 77.1, "unit": "%"}, {"measurement": "viability, T/C", "setting": "second compound 0.0316 µM, first compound 0.316 µM", "result": 69, "unit": "%"}, {"measurement": "viability, T/C", "setting": "second compound 0.0316 µM, first compound 1 µM", "result": 70.3, "unit": "%"}, {"measurement": "viability, T/C", "setting": "second compound 0.0316 µM, first compound 3.16 µM", "result": 64.3, "unit": "%"}, {"measurement": "viability, T/C", "setting": "second compound 0.0316 µM, first compound 10 µM", "result": 59.9, "unit": "%"}, {"measurement": "viability, T/C", "setting": "second compound 0.1 µM, first compound 0.0316 µM", "result": 79.9, "unit": "%"}, {"measurement": "viability, T/C", "setting": "second compound 0.1 µM, first compound 0.1 µM", "result": 61.4, "unit": "%"}, {"measurement": "viability, T/C", "setting": "second compound 0.1 µM, first compound 0.316 µM", "result": 65.9, "unit": "%"}, {"measurement": "viability, T/C", "setting": "second compound 0.1 µM, first compound 1 µM", "result": 61.4, "unit": "%"}, {"measurement": "viability, T/C", "setting": "second compound 0.1 µM, first compound 3.16 µM", "result": 51.6, "unit": "%"}, {"measurement": "viability, T/C", "setting": "second compound 0.1 µM, first compound 10 µM", "result": 60.2, "unit": "%"}, {"measurement": "viability, T/C", "setting": "second compound 0.316 µM, first compound 0.0316 µM", "result": 48.2, "unit": "%"}, {"measurement": "viability, T/C", "setting": "second compound 0.316 µM, first compound 0.1 µM", "result": 44.2, "unit": "%"}, {"measurement": "viability, T/C", "setting": "second compound 0.316 µM, first compound 0.316 µM", "result": 41.9, "unit": "%"}, {"measurement": "viability, T/C", "setting": "second compound 0.316 µM, first compound 1 µM", "result": 37.4, "unit": "%"}, {"measurement": "viability, T/C", "setting": "second compound 0.316 µM, first compound 3.16 µM", "result": 37.4, "unit": "%"}, {"measurement": "viability, T/C", "setting": "second compound 0.316 µM, first compound 10 µM", "result": 36.1, "unit": "%"}, {"measurement": "viability, T/C", "setting": "second compound 1 µM, first compound 0.0316 µM", "result": 32.4, "unit": "%"}, {"measurement": "viability, T/C", "setting": "second compound 1 µM, first compound 0.1 µM", "result": 50.2, "unit": "%"}, {"measurement": "viability, T/C", "setting": "second compound 1 µM, first compound 0.316 µM", "result": 35.7, "unit": "%"}, {"measurement": "viability, T/C", "setting": "second compound 1 µM, first compound 1 µM", "result": 16.5, "unit": "%"}, {"measurement": "viability, T/C", "setting": "second compound 1 µM, first compound 3.16 µM", "result": 26.6, "unit": "%"}, {"measurement": "viability, T/C", "setting": "second compound 1 µM, first compound 10 µM", "result": 17.3, "unit": "%"}, {"measurement": "viability, T/C", "setting": "second compound 3.16 µM, first compound 0.0316 µM", "result": 33.4, "unit": "%"}, {"measurement": "viability, T/C", "setting": "second compound 3.16 µM, first compound 0.1 µM", "result": 2.38, "unit": "%"}, {"measurement": "viability, T/C", "setting": "second compound 3.16 µM, first compound 0.316 µM", "result": 3.48, "unit": "%"}, {"measurement": "viability, T/C", "setting": "second compound 3.16 µM, first compound 1 µM", "result": 1.13, "unit": "%"}, {"measurement": "viability, T/C", "setting": "second compound 3.16 µM, first compound 3.16 µM", "result": 2.41, "unit": "%"}, {"measurement": "viability, T/C", "setting": "second compound 3.16 µM, first compound 10 µM", "result": 1.37, "unit": "%"}, {"measurement": "viability, T/C", "setting": "second compound 10 µM, first compound 0.0316 µM", "result": 0.61, "unit": "%"}, {"measurement": "viability, T/C", "setting": "second compound 10 µM, first compound 0.1 µM", "result": 0.24, "unit": "%"}, {"measurement": "viability, T/C", "setting": "second compound 10 µM, first compound 0.316 µM", "result": 0.23, "unit": "%"}, {"measurement": "viability, T/C", "setting": "second compound 10 µM, first compound 1 µM", "result": 0.23, "unit": "%"}, {"measurement": "viability, T/C", "setting": "second compound 10 µM, first compound 3.16 µM", "result": 0.28, "unit": "%"}, {"measurement": "viability, T/C", "setting": "second compound 10 µM, first compound 10 µM", "result": 0.22, "unit": "%"}]}
{"smiles": "CC1COCCN1c1cc(-c2ccnn2C)c2ccnc(-c3ccn[nH]3)c2n1", "note": "(stereo not given)", "values": [{"measurement": "viability, T/C", "setting": "compound 0.0316 µM", "result": "93.3% and 80.4% and 110%"}, {"measurement": "viability, T/C", "setting": "compound 0.1 µM", "result": "40.7% and 25.8% and 39.3%"}, {"measurement": "viability, T/C", "setting": "compound 0.316 µM", "result": "20.1% and 22% and 14.4%"}, {"measurement": "viability, T/C", "setting": "compound 1 µM", "result": "20.6% and 15.7% and 21.6%"}, {"measurement": "viability, T/C", "setting": "compound 3.16 µM", "result": "15.3% and 14.9% and 14.8%"}, {"measurement": "viability, T/C", "setting": "compound 10 µM", "result": "12.3% and 12.6% and 11.2%"}, {"measurement": "pIC50", "setting": "curve of compound", "result": "7.09 and 7.21 and 7.07"}]}
